Reference: US9221766B2, “Compounds as diacylglycerol acyltransferase inhibitors” (GlaxoSmithKline LLC, priority 2012, dated 2015)

Biological target: T1, Human DGAT1 (Homo sapiens, UniProt O75907)
T1 construct: made in house; host or cells: Sf9 insect cells (baculovirus); microsomes used as enzyme
T1 sequence (O75907 1-488): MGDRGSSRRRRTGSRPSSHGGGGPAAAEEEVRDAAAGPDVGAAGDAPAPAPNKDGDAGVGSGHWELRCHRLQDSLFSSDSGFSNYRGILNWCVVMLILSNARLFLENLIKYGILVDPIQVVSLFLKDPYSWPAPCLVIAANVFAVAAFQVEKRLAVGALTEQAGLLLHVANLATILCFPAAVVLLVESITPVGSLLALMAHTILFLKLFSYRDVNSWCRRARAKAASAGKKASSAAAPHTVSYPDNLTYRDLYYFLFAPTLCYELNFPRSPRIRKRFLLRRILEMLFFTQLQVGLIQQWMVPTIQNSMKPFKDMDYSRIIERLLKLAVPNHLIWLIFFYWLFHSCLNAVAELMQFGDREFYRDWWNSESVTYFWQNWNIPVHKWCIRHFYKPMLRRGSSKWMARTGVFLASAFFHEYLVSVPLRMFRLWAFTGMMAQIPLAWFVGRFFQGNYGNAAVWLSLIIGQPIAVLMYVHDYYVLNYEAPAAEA
Experiment: human DGAT1 lipid extraction (LE) assay, inhibition of triacylglycerol product formation
Type: biochemical
Details: human DGAT1 microsomes from Sf9 cells, read-out: hDGAT LE IC50
Protocol: Human DGAT1 was expressed in Sf9 insect cells using a baculovirus expression system. Microsomes were prepared and used as enzyme for in vitro inhibition testing in either of two formats measuring production of coenzyme A or tridecanoylglycerol product, respectively. All steps were performed at 21-23° C. All data for DGAT1 inhibition by test compounds were collected under conditions where product formation was linear with reaction time.
For inhibition of triacylglycerol product formation, 11 uL reactions were run in white Polyplate-384 (PerkinElmer6007300) starting with a 30 minute pre-reaction incubation of 5 uL of 2.2× enzyme and 1 uL of 100% DMSO containing test compound or control compound, {4-[4-(4-amino-7,7-dimethyl-7H-pyrimido[4,5-b][1,4]oxazin-6-yl)phenyl]cyclohexyl}acetic acid. Some assays were performed with inclusion of didecanoylglycerol in the pre-reaction incubation of test compounds and enzyme. Reactions were initiated after 30 minute pre-reaction incubation via addition of 5 uL of 2.2× substrate. Final reaction conditions consisted of 50 mM HEPES pH 7.5, 2 mM MgCl2, 1 mM CHAPS, 25 uM didecanoylglycerol, 0.5 uM decanoyl-CoA, 0.3 nCi/uL [^14C-]decanoyl-CoA or 0.5 nCi/uL [^3H]-decanoyl-CoA, 0.05-4 ug/mL microsomal protein, and 1% DMSO. Following 60 minute reaction incubation, reactions were stopped with 40 uL of 45% isopropanol and 50 mM sodium carbonate in water and mixed. Extraction of tridecanoylglycerol product was accomplished via addition of 30 uL Microscint-E (Perkin Elmer) and 2 hours of incubation (sealed). Plates were read on a Microbeta Microplate reader Inhibition was normalized to controls containing DMSO or 10 uM {4-[4-(4-amino-7,7-dimethyl-7H-pyrimido[4,5-b][1,4]oxazin-6-yl)phenyl]cyclohexyl}acetic acid. IC50s were fitted using GraphPad Prism to a sigmoidal dose response.

| SMILES | IC50 [nM] |
| --- | --- |
| O=C(O)CC1(CC(F)(F)F)CCc2cc(-c3ccc(Nc4ccc(C(F)(F)F)nc4)cn3)ccc2C1=O (single isomer, unassigned) [Example 1, 2-(1-Oxo-2-(2,2,2-trifluoroethyl)-6-(5-(6-(trifluoromethyl)pyridin-3-ylamino)pyridin-2-yl)-1,2,3,4-tetrahydronaphthalen-2-yl)acetic acid] | ≤ 100 |
| O=C(O)CC1(CC(F)(F)F)CCc2cc(-c3ccc(Nc4ccc(Cl)cc4)cn3)ccc2C1=O (single isomer, unassigned) [Example 2, 2-(6-(5-(4-Chlorophenylamino)pyridin-2-yl)-1-oxo-2-(2,2,2-trifluoroethyl)-1,2,3,4-tetrahydronaphthalen-2-yl)acetic acid] | ≤ 100 |
| CC1(CC(=O)O)CCc2cc(-c3ccc(Nc4ccc(C(F)(F)F)nc4)cn3)ccc2C1=O (single isomer, unassigned) [Example 3, 2-(2-Methyl-1-oxo-6-(5-(6-(trifluoromethyl)pyridin-3-ylamino)pyridin-2-yl)-1,2,3,4-tetrahydronaphthalen-2-yl)acetic acid] | 500 to 10000 |
| CCC1(CC(=O)O)CCc2cc(-c3ccc(Nc4ccc(C(F)(F)F)nc4)cn3)ccc2C1=O (single isomer, unassigned) [Example 4, 2-(2-Ethyl-1-oxo-6-(5-(6-(trifluoromethyl)pyridin-3-ylamino)pyridin-2-yl)-1,2,3,4-tetrahydronaphthalen-2-yl)acetic acid] | ≤ 100 |
| CCC1(CC(=O)O)CCc2cc(-c3ccc(Nc4ccc(C(F)(F)F)nc4)cn3)ccc2C1=O (single isomer, unassigned) [Example 5, 2-(2-ethyl-1-oxo-6-(5-(6-(trifluoromethyl)pyridin-3-ylamino)pyridin-2-yl)-1,2,3,4-tetrahydronaphthalen-2-yl)acetic acid] | 100 to 500 |
| O=C(O)CC1(CC(F)(F)F)CCc2cc(-c3ccc(Nc4ccc(Cl)cc4)cn3)ccc2C1=O (single isomer, unassigned) [Example 6, 2-(6-(5-(4-chlorophenylamino)pyridin-2-yl)-1-oxo-2-(2,2,2-trifluoroethyl)-1,2,3,4-tetrahydronaphthalen-2-yl)acetic acid] | ≤ 100 |
| Cc1ccc(Nc2ccc(-c3ccc4c(c3)CCC(CC(=O)O)(CC(F)(F)F)C4=O)nc2)cc1 (single isomer, unassigned) [Example 9, 2-(1-oxo-6-(5-(p-tolylamino)pyridin-2-yl)-2-(2,2,2-trifluoroethyl)-1,2,3,4-tetrahydronaphthalen-2-yl)acetic acid] | 100 to 500 |
| O=C(O)CC1(CC(F)(F)F)CCc2cc(-c3ccc(Nc4ccc(F)c(F)c4)cn3)ccc2C1=O (single isomer, unassigned) [Example 10, 2-(6-(5-(3,4-difluorophenylamino)pyridin-2-yl)-1-oxo-2-(2,2,2-trifluoroethyl)-1,2,3,4-tetrahydronaphthalen-2-yl)acetic acid] | ≤ 100 |
| O=C(O)CC1(CC(F)(F)F)CCc2cc(-c3ccc(Nc4cccc(Cl)c4)cn3)ccc2C1=O (single isomer, unassigned) [Example 11, 2-(6-(5-(3-chlorophenylamino)pyridin-2-yl)-1-oxo-2-(2,2,2-trifluoroethyl)-1,2,3,4-tetrahydronaphthalen-2-yl)acetic acid] | 100 to 500 |
| Cc1ccc(Nc2ccc(-c3ccc4c(c3)CCC(CC(=O)O)(CC(F)(F)F)C4=O)nc2)nc1 (single isomer, unassigned) [Example 12, 2-(6-(5-(5-methylpyridin-2-ylamino)pyridin-2-yl)-1-oxo-2-(2,2,2-trifluoroethyl)-1,2,3,4-tetrahydronaphthalen-2-yl)acetic acid] | ≤ 100 |
| O=C(O)CC1(CC(F)(F)F)CCc2cc(-c3cnc(Nc4ccc5c(c4)OCO5)cn3)ccc2C1=O (single isomer, unassigned) [Example 19, 2-(6-(5-(benzo[d][1,3]dioxol-5-ylamino)pyrazin-2-yl)-1-oxo-2-(2,2,2-trifluoroethyl)-1,2,3,4-tetrahydronaphthalen-2-yl)acetic acid] | 100 to 500 |
| O=C(O)CC1(CC(F)(F)F)CCc2cc(-c3cnc(Nc4ccc5c(c4)OCO5)cn3)ccc2C1=O (single isomer, unassigned) [Example 20, 2-(6-(5-(benzo[d][1,3]dioxol-5-ylamino)pyrazin-2-yl)-1-oxo-2-(2,2,2-trifluoroethyl)-1,2,3,4-tetrahydronaphthalen-2-yl)acetic acid] | 500 to 10000 |

Further lines, results first:

| IC50 [nM] | SMILES |
| --- | --- |
| ≤ 100 | O=C(O)CC1(CC(F)(F)F)CCc2cc(-c3ccc(Nc4ccc(Cl)cn4)cn3)ccc2C1=O (single isomer, unassigned) [Example 7, 2-(6-(5-(5-chloropyridin-2-ylamino)pyridin-2-yl)-1-oxo-2-(2,2,2-trifluoroethyl)-1,2,3,4-tetrahydronaphthalen-2-yl)acetic acid] |
| ≤ 100 | O=C(O)CC1(CC(F)(F)F)CCc2cc(-c3ccc(Nc4ccc(Cl)cn4)cn3)ccc2C1=O (single isomer, unassigned) [Example 8, 2-(6-(5-(5-chloropyridin-2-ylamino)pyridin-2-yl)-1-oxo-2-(2,2,2-trifluoroethyl)-1,2,3,4-tetrahydronaphthalen-2-yl)acetic acid] |
| 100 to 500 | Cc1ccc(Nc2ccc(-c3ccc4c(c3)CCC(CC(=O)O)(CC(F)(F)F)C4=O)nc2)nc1 (single isomer, unassigned) [Example 13, 2-(6-(5-(5-methylpyridin-2-ylamino)pyridin-2-yl)-1-oxo-2-(2,2,2-trifluoroethyl)-1,2,3,4-tetrahydronaphthalen-2-yl)acetic acid] |
| ≤ 100 | O=C(O)CC1(CC(F)(F)F)CCc2cc(-c3cnc(Nc4ccc(C(F)(F)F)nc4)cn3)ccc2C1=O (single isomer, unassigned) [Example 14, 2-(1-Oxo-2-(2,2,2-trifluoroethyl)-6-(5-(6-(trifluoromethyl)pyridin-3-ylamino)pyrazin-2-yl)-1,2,3,4-tetrahydro-naphthalen-2-yl)acetic acid] |
| 500 to 10000 | O=C(O)CC1(CC(F)(F)F)CCc2cc(-c3cnc(Nc4ccc(C(F)(F)F)nc4)cn3)ccc2C1=O (single isomer, unassigned) [Example 15, 2-(1-oxo-2-(2,2,2-trifluoroethyl)-6-(5-(6-(trifluoromethyl)pyridin-3-ylamino)pyrazin-2-yl)-1,2,3,4-tetrahydronaphthalen-2-yl)acetic acid] |
| 100 to 500 | Cc1ccc(Nc2cnc(-c3ccc4c(c3)CCC(CC(=O)O)(CC(F)(F)F)C4=O)cn2)nc1 (single isomer, unassigned) [Example 16, 2-(6-(5-(5-methylpyridin-2-ylamino)pyrazin-2-yl)-1-oxo-2-(2,2,2-trifluoroethyl)-1,2,3,4-tetrahydronaphthalen-2-yl)acetic acid] |
| 100 to 500 | O=C(O)CC1(CC(F)(F)F)CCc2cc(-c3cnc(Nc4ccc(Cl)cn4)cn3)ccc2C1=O (single isomer, unassigned) [Example 17, 2-(6-(5-(5-chloropyridin-2-ylamino)pyrazin-2-yl)-1-oxo-2-(2,2,2-trifluoroethyl)-1,2,3,4-tetrahydronaphthalen-2-yl)acetic acid] |
| 100 to 500 | O=C(O)CC1(CC(F)(F)F)CCc2cc(-c3cnc(Nc4ccc(Cl)cn4)cn3)ccc2C1=O (single isomer, unassigned) [Example 18, 2-(6-(5-(5-chloropyridin-2-ylamino)pyrazin-2-yl)-1-oxo-2-(2,2,2-trifluoroethyl)-1,2,3,4-tetrahydronaphthalen-2-yl)acetic acid] |
